From patent US9023821B2, “Use of MicroRNA for treating diseases associated with a dysfunction of the cilia in multiciliated epithelial cells” (Centre National de la Recherche Scientifique, priority 2009, dated 2015)

Experiments:
[1] = tested on: human airway epithelial cells (HAECs); assay: High-throughput sequencing (HTS) of miRNAs at four stages of differentiation of HAECs; settings: for Modulation (ratio of the level of intensity of expression in log2 in two stages of differentiation) measured by high-throughput sequencing, D7 − D0 / Modulation (ratio of the level of intensity of expression in log2 in two stages of differentiation) measured by high-throughput sequencing, FC − D7 / Modulation (ratio of the level of intensity of expression in log2 in two stages of differentiation) measured by high-throughput sequencing, WD − D0 / Modulation (ratio of the level of intensity of expression in log2 in two stages of differentiation) measured by high-throughput sequencing, WD − FC / Level of intensity of expression in log2 measured by high-throughput sequencing, D0 / Level of intensity of expression in log2 measured by high-throughput sequencing, D7 / Level of intensity of expression in log2 measured by high-throughput sequencing, FC / Level of intensity of expression in log2 measured by high-throughput sequencing, WD: Table VI; for Level of intensity of expression in log2 At the differentiated stage (WD) measured in HTS: healthy human airway epithelial tissue; for Level of intensity of expression in log2 measured by high-throughput sequencing, D0: stage D0; for Level of intensity of expression in log2 measured by high-throughput sequencing, D7: stage D7; for Level of intensity of expression in log2 measured by high-throughput sequencing, FC: stage FC; for Level of intensity of expression in log2 At the differentiated stage (WD) measured in HTS / Level of intensity of expression in log2 measured by high-throughput sequencing, WD: stage WD
Procedure, shortened: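 Cells at four air-liquid interface differentiation stages were lysed and total RNA with miRNAs purified. Adaptor Mix A or B ligation (16° C, 2-16 h) allowed 5′ or 3′ end sequencing. Abundance cut-off was 1% of total miRNAs in at least one stage.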

[2] = tested on: human airway epithelial cells (HAECs); assay: Agilent miRNA chips, miRNA expression at four stages of differentiation of HAECs; settings: for Modulation (ratio of the level of intensity of expression in log2 in two stages of differentiation) measured with the Agilent chips, D7 − D0 / Modulation (ratio of the level of intensity of expression in log2 in two stages of differentiation) measured with the Agilent chips, FC − D7 / Modulation (ratio of the level of intensity of expression in log2 in two stages of differentiation) measured with the Agilent chips, WD − D0 / Modulation (ratio of the level of intensity of expression in log2 in two stages of differentiation) measured with the Agilent chips, WD − FC / Level of intensity of expression in log2 measured with the Agilent chips, D0 / Level of intensity of expression in log2 measured with the Agilent chips, D7 / Level of intensity of expression in log2 measured with the Agilent chips, FC / Level of intensity of expression in log2 measured with the Agilent chips, WD: Table VI; for Modulation (ratio of the level of intensity of expression in log2 at two stages of differentiation), FC − D7 / Modulation (ratio of the level of intensity of expression in log2 at two stages of differentiation), WD − FC: Agilent miRNA chips, Table V; for Level of intensity of expression in log2 measured with the Agilent chips, D0: stage D0; for Level of intensity of expression in log2 measured with the Agilent chips, D7: stage D7; for Level of intensity of expression in log2 measured with the Agilent chips, FC: stage FC; for Level of intensity of expression in log2 measured with the Agilent chips, WD: stage WD
Procedure, shortened: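 To benchmark sequencing, the microRNAome was also profiled by hybridizing labelled RNA from identical patient samples to v2 arrays with miRBase v.12.0 human content (866 miRNAs) and 89 viral miRNAs.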

[3] = tested on: basal cells and pyramidal cells of the airway epithelium; assay: miRNA expression in sorted basal cells versus pyramidal cells (ciliated + secretory), HTS and Agilent chips; set-up: species or system human; settings: for Modulation of expression of the miRNAs in pyramidal cells (323(−)) relative to basal cells 323(+): HTS and Agilent chips; for Intensity of the level of expression in log2 in pyramidal cells (323(−)): pyramidal cells (ciliated + secretory)
Procedure, shortened: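 Read-out is miRNA profiling of total RNA, by Agilent chips or by high-throughput sequencing, in two sorted populations. These were basal cells (CD151+/TF+) and pyramidal ciliated/secretory cells (CD151−/TF−) from airway epithelium of 3 donors.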

Row | Substance | Modulation (ratio of the level of intensity of expression in log2 in two stages of differentiation) measured by high-throughput sequencing, D7 − D0 [1] [log2] | Modulation (ratio of the level of intensity of expression in log2 in two stages of differentiation) measured by high-throughput sequencing, FC − D7 [1] [log2] | Modulation (ratio of the level of intensity of expression in log2 in two stages of differentiation) measured by high-throughput sequencing, WD − D0 [1] [log2] | Modulation (ratio of the level of intensity of expression in log2 in two stages of differentiation) measured by high-throughput sequencing, WD − FC [1] [log2] | Level of intensity of expression in log2 At the differentiated stage (WD) measured in HTS [1] [log2] | Level of intensity of expression in log2 measured by high-throughput sequencing, D0 [1] [log2] | Level of intensity of expression in log2 measured by high-throughput sequencing, D7 [1] [log2] | Level of intensity of expression in log2 measured by high-throughput sequencing, FC [1] [log2] | Level of intensity of expression in log2 measured by high-throughput sequencing, WD [1] [log2] | Modulation (ratio of the level of intensity of expression in log2 in two stages of differentiation) measured with the Agilent chips, D7 − D0 [2] [log2] | Modulation (ratio of the level of intensity of expression in log2 at two stages of differentiation), FC − D7 [2] [log2] | Modulation (ratio of the level of intensity of expression in log2 in two stages of differentiation) measured with the Agilent chips, FC − D7 [2] [log2] | Modulation (ratio of the level of intensity of expression in log2 in two stages of differentiation) measured with the Agilent chips, WD − D0 [2] [log2] | Modulation (ratio of the level of intensity of expression in log2 at two stages of differentiation), WD − FC [2] [log2] | Modulation (ratio of the level of intensity of expression in log2 in two stages of differentiation) measured with the Agilent chips, WD − FC [2] [log2] | Level of intensity of expression in log2 measured with the Agilent chips, D0 [2] [log2] | Level of intensity of expression in log2 measured with the Agilent chips, D7 [2] [log2] | Level of intensity of expression in log2 measured with the Agilent chips, FC [2] [log2] | Level of intensity of expression in log2 measured with the Agilent chips, WD [2] [log2] | Modulation of expression of the miRNAs in pyramidal cells (323(−)) relative to basal cells 323(+) [3] | further results
1 | hsa-miR-125a-5p: human miRNA, SEQ ID No. 3 (UCCCUGAGACCCUUUAACCUGUGA; expressed or natural sequence; listed as Homo sapiens) | 0.64 | −0.27 | 1.16 | 0.79 | 14.08 | 12.92 | 13.55 | 13.29 | 14.08 | 1.29 | −0.46 | −0.46 | 0.79 | −0.04 | −0.04 | 7.37 | 8.66 | 8.20 | 8.15 | −0.05 | Modulation (ratio of the level of intensity of expression in log2 in two stages of differentiation), D7 − D0 ([1]; HTS): 0.64 log2; Modulation (ratio of the level of intensity of expression in log2 in two stages of differentiation), FC − D7 ([1]; HTS): −0.27 log2; Modulation (ratio of the level of intensity of expression in log2 in two stages of differentiation), WD − FC ([1]; HTS): 0.79 log2; Abundance (%), D0 ([1]; HTS, ALI-D0): 1.69%; Abundance (%), D7 ([1]; HTS, ALI-D7): 2.64%; Abundance (%), FC ([1]; HTS, ALI-FC): 2.13%; Abundance (%), WD ([1]; HTS, ALI-WD): 2.79%; Intensity of the level of expression in log2 in basal cells (323(+)) [3]: 6.63 log2; Intensity of the level of expression in log2 in pyramidal cells (323(−)) [3]: 6.58 log2
2 | hsa-miR-106b: human miRNA, SEQ ID No. 2 (UAAAGUGCUGACAGUGCAGAU; expressed or natural sequence; listed as Homo sapiens) | 1.33 | −0.28 | 0.96 | −0.09 | 5.39 | 4.43 | 5.76 | 5.48 | 5.39 | 1.39 | −0.53 | −0.53 | 0.69 | −0.18 | −0.18 | 8.08 | 9.47 | 8.94 | 8.77 | −2.05 | Intensity of the level of expression in log2 in basal cells (323(+)) [3]: 7.22 log2; Intensity of the level of expression in log2 in pyramidal cells (323(−)) [3]: 5.16 log2
